Source: article PMC2837410, “Structural Basis of Cell Wall Cleavage by a Staphylococcal Autolysin” (PLoS Pathogens, 2010)
Positions count from the first letter of the chain named.

Tests used:
AmiE wt = target: T1, AmiE wt (Staphylococcus epidermidis, UniProt O33635); experiment: MTP digestion assay (cleavage of PGN-derived ligands), wt enzyme; type: biochemical; conditions: 10 µg protein + 0.1 mg ligand in 10 µl 50 mM Tris/HCl pH 8.0, 150 mM NaCl; 72 h at 37°C; products analysed by HPLC and ESI-MS
T1 construct: A DNA fragment coding for amino acids 303 to 516 of the atlE gene product; GST (N, cleaved yes); made in house; host or cells: Escherichia coli BL21 (DE3)
T1 sequence (O33635 303-516): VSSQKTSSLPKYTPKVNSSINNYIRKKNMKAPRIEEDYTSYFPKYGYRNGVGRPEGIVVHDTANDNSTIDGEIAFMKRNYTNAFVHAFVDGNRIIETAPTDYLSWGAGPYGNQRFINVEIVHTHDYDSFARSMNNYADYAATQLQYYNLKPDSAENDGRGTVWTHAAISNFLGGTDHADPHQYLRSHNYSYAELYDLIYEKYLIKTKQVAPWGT
Method: (§1) To determine the minimal PGN sequence that can still be cleaved by AmiE, we performed cleavage assays with three PGN-derived compounds: MTP, N-acetylmuramyl-L-alanyl-D-iso-glutamine (MDP), and N-acetyl-D-glucosaminyl-(1,4)-N-acetylmuramyl-L-alanyl-D-iso-glutamine (GMDP). MDP and GDMP were purchased from Sigma and Calbiochem, respectively, whereas MTP was synthesized as described. All ligands were incubated with the wt protein for 72 h at 37°C, followed by analysis of products with HPLC and ESI mass spectrometry. […] The m/z profile of the H177A mutant is dominated by peaks at m/z 621 and 649 (Figure 5, right). The latter peak represents the MTP educt plus an unknown additional mass, which probably originates from the synthesis. Both peaks are replaced by peaks at m/z 346 and 374 in the profile for the wt protein (Figure 5, left). The first peak corresponds to the expected mass of the cleaved peptide stem while the second one is the digestion product of the compound with the higher mass. We conclude that cleavage by AmiE requires the presence of a third amino acid in the peptide stem. As the lysine is quite distant from the active site, it is most likely not required for the catalytic reaction itself but likely serves to anchor the ligand in the binding site. Similar cleavage results have previously been obtained for the catalytically active PGRP-L protein, which also requires MTP for cleavage.
For each assay, 10 µg of wt or mutant protein and 0.1 mg of the appropriate ligand were incubated in 10 µl gel filtration buffer (50 mM Tris/HCl pH 8.0, 150 mM NaCl). The reaction was stopped after 72 h by adding 100 µl acetonitrile with 0,05% (v/v) formic acid. The sample was then frozen at -20°C until used for ESI-MS.

wt amidase = conditions: chelating agents likely remove the zinc ion; cited from earlier work
Text: In order to determine whether amino acids in the vicinity of the zinc ion are required for enzymatic activity, residues H60, H177 and D179 were separately mutated to alanine. All three mutant proteins were expressed and purified to homogeneity. None of them has lytic activity in zymogram gels with heat-inactivated S. aureus cells, whereas the wild type (wt) protein is able to lyse cell walls efficiently (Figure 4A). Similar results were obtained with lysis assays using purified S. aureus PGN (Figure 4B). Our results therefore provide evidence for a critical role of the zinc ion and its surroun ...

AmiE = target: T2, AmiE (Staphylococcus epidermidis, UniProt O33635); experiment: Digestion assay with modified AmiE substrates (Mca substrate derivatives); type: biochemical; conditions: 70 µM substrate, 7.2 µM AmiE, 37°C, 50 mM sodium phosphate buffer pH 7.2, 6 h; stopped with 1% TFA; RP-HPLC C-18, UV 214 nm
T2 construct: A DNA fragment coding for amino acids 303 to 516 of the atlE gene product; GST (N, cleaved yes); made in house; host or cells: Escherichia coli BL21 (DE3)
T2 sequence (O33635 303-516): T1 sequence (O33635 303-516)
Method: The five substrates, each at a concentration of 70 µM, were processed by 7.2 µM AmiE at 37°C in digestion buffer (50 mM sodium phosphate buffer, pH 7.2). After 1, 3 and 6 h, the reaction was stopped by adding trifluoroacetic acid to a final concentration of 1%. Decrease of the initial substrate and formation of the Mca product were analyzed by analytical RP-HPLC using a binary HPLC system (Shimadzu, Tokyo, Japan) with a UV detector, a Nucleosil C-18 column (5 µm particle size, 150×2 mm) from Dr Maisch GmbH (Tuebingen, Germany) and a two solvent system: (A) 0.055% (v/v) TFA in water and (B) 0.05% TFA in 80% acetonitrile in water. The substrate was well separated from the generated cleavage product Mca, and was quantified at 214 nm.

AmiE H177A = target: T3, AmiE H177A (Staphylococcus epidermidis, UniProt O33635, H479A); experiment: MTP digestion assay, inactive mutant (negative control); type: biochemical; conditions: 10 µg protein + 0.1 mg ligand in 10 µl 50 mM Tris/HCl pH 8.0, 150 mM NaCl; 72 h; ESI-MS
T3 construct: A DNA fragment coding for amino acids 303 to 516 of the atlE gene product; GST (N, cleaved yes); made in house; host or cells: Escherichia coli
T3 sequence (O33635 303-516 H479A): T1 sequence (O33635 303-516) with H177A
Method: as §1, with “Similar cleavage results have previously been obtained for the catalytically active PGRP-L protein, which also requires MTP for cleavage.” left out

N-acetylmuramyl-L-alanyl-D-iso-glutamine [MDP]
cleavage of ligand by the wt enzyme (AmiE wt): neither MDP nor GMDP are cleaved

c1cnc2c(c1)ccc1cccnc12 [phenanthroline]
effect of chelating agent on activity of the wt amidase (wt amidase): loss of activity

N-acetyl-D-glucosaminyl-(1,4)-N-acetylmuramyl-L-alanyl-D-iso-glutamine [GMDP]
cleavage of ligand by the wt enzyme (AmiE wt): neither MDP nor GMDP are cleaved

Mca-Ala-D-iGln-Lys-D-Ala-Arg-OH [Lys-substrate]
amount of substrate cleaved after 6 h (AmiE): almost half

N-acetylmuramyl-L-alanyl-D-iso-glutamyl-L-lysine [MTP]
cleavage of ligand by the H177A mutant (AmiE H177A): does not cleave
cleavage of ligand by the wt enzyme (AmiE wt): cleaved into two fragments

O=C(O)CN(CCN(CC(=O)O)CC(=O)O)CC(=O)O [EDTA]
effect of chelating agent on activity of the wt amidase (wt amidase): loss of activity

Mca-Ala-D-iGln-Ala-D-Ala-Arg-OH [Ala-substrate]
amount of substrate cleaved after 6 h (AmiE): Approximately 10%
